Results reported in patent US20080175900A1, “PHARMACEUTICAL FORMULATIONS OF AN ANHYDRATE CRYSTAL FORM OF 2-(3-FLUORO-4-HYDROXYPHENYL)-7-VINYL-1,3-BENZOXAZOL-5-OL” (WYETH, priority 2006, published 2008).

Assay: Conversion of the crystal form when suspended and stirred in a solvent at room temperature
Type: physicochemical
Excerpt: The anhydrate crystal form (Form B) can be converted to other crystal forms under suitable conditions. […] 6, 2006).

crystal form obtained after suspending and stirring in water (suspended and stirred in water at room temperature for three days): a hydrate crystal form is obtained
Structure (SMILES): C=Cc1cc(O)cc2nc(-c3ccc(O)c(F)c3)oc12 [Form B, 2-(3-fluoro-4-hydroxyphenyl)-7-vinyl-1,3-benzoxazol-5-ol]
crystal form obtained after suspending and stirring in ethanol (suspended and stirred in ethanol at room temperature for three days): another anhydrate crystal form is obtained
crystal form obtained after suspending and stirring in methanol (suspended and stirred in methanol at room temperature for one day): another anhydrate crystal form is obtained
